Assay results reported in ChEMBL document CHEMBL1130994, “3-trifluoromethylcarbacephems: synthesis of broad spectrum antibacterial compounds” (1998).
In brackets after ≈: the same amount, converted by molar mass.

Legend:
[1] = system: Escherichia coli; experiment: Compound was evaluated for inhibitory activity against EC14 Escherichia coli sensitive; type: functional
[2] = system: Providencia rettgeri; experiment: Compound was evaluated for inhibitory activity against C24 Providencia rettgeri; type: functional
[3] = system: Morganella morganii; experiment: Compound was evaluated for inhibitory activity against PR15 Morganella morganii; type: functional
[4] = system: Haemophilus influenzae; experiment: Compound was evaluated for inhibitory activity against C.L Haemophilus influenzae ampicillin sensitive; type: functional
[5] = system: Escherichia coli; experiment: Compound was evaluated for inhibitory activity against TEM Escherichia coli beta-lactamase; type: functional
[6] = system: Staphylococcus aureus; experiment: Compound was evaluated for inhibitory activity against X400S Staphylococcus aureus methicillin resistant and macrolide resistant; type: functional
[7] = system: Staphylococcus aureus; experiment: Compound was evaluated for inhibitory activity against X1.1 Staphylococcus aureus penicillin sensitive; type: functional
[8] = system: Serratia; experiment: Compound was evaluated for inhibitory activity against X99 Serratia; type: functional
[9] = system: Klebsiella aerogenes; experiment: Compound was evaluated for inhibitory activity against EB17 Enterobacter aerogenes; type: functional
[10] = system: Serratia; experiment: Compound was evaluated for inhibitory activity against SE3 Serratia; type: functional
[11] = system: Klebsiella aerogenes; experiment: Compound was evaluated for inhibitory activity against C32 Enterobacter aerogenes; type: functional
[12] = system: Enterobacter cloacae; experiment: Compound was evaluated for inhibitory activity against 265a Enterobacter cloacae beta-lactamase; type: functional
[13] = system: Streptococcus pneumoniae; experiment: Compound was evaluated for inhibitory activity against Park S Streptococcus pneumoniae; type: functional
[14] = system: Providencia stuartii; experiment: Compound was evaluated for inhibitory activity against PR33 Providencia stuartii; type: functional
[15] = system: Salmonella; experiment: Compound was evaluated for inhibitory activity against X514 Salmonella; type: functional
[16] = system: Staphylococcus aureus; experiment: Compound was evaluated for inhibitory activity against S13E Staphylococcus aureus methicillin resistant penicillin resistant macrolide sensitive (PBP2a producer); type: functional
[17] = system: Klebsiella pneumoniae; experiment: Compound was evaluated for inhibitory activity against KAE Klebsiella pneumoniae; type: functional
[18] = system: Streptococcus pyogenes; experiment: Compound was evaluated for inhibitory activity against C203 Streptococcus pyogenes Gp.A; No growth; type: functional, organism-based
[19] = system: Enterobacter cloacae; experiment: Compound was evaluated for inhibitory activity against EB5 Enterobacter cloacae; type: functional
[20] = system: Acinetobacter; experiment: Compound was evaluated for inhibitory activity against AC12 Acinetobacter; type: functional
[21] = system: Enterococcus faecalis; experiment: Compound was evaluated for inhibitory activity against 2041 Enterococcus faecalis Gp.D streptococcus penicillin susceptible; type: functional
[22] = system: Klebsiella pneumoniae; experiment: Compound was evaluated for inhibitory activity against X26 Klebsiella pneumoniae; type: functional
[23] = system: Haemophilus influenzae; experiment: Compound was evaluated for inhibitory activity against 76 Haemophilus influenzae beta-lactamase; type: functional
[24] = system: Citrobacter; experiment: Compound was evaluated for inhibitory activity against CF17 Citrobacter; type: functional
[25] = system: Streptococcus pneumoniae; experiment: Compound was evaluated for inhibitory activity against Park S Streptococcus pneumoniae; No growth; type: functional, organism-based
[26] = system: Streptococcus pyogenes; experiment: Compound was evaluated for inhibitory activity against C203 Streptococcus pyogenes Gp.A; type: functional

SMILES	MIC [1] [µM]	MIC [2] [µM]	MIC [3] [µM]	MIC [4] [µM]	MIC [5] [µM]	MIC [6] [µM]	MIC [7] [µM]	MIC [8] [µM]	MIC [9] [µM]	MIC [10] [µM]	MIC [11] [µM]	MIC [12] [µM]	MIC [14] [µM]	MIC [15] [µM]	MIC [16] [µM]	MIC [17] [µM]	MIC [19] [µM]	MIC [20] [µM]	MIC [21] [µM]	MIC [22] [µM]	further results
N[C@@H](C(=O)N[C@@H]1C(=O)N2C(C(=O)O)=C(C(F)(F)F)CC[C@H]12)c1cccc(C(F)(F)F)c1	8 (≈ 3.61 µg/mL)	64 (≈ 28.9 µg/mL)	32 (≈ 14.4 µg/mL)	1 (≈ 0.451 µg/mL)	16 (≈ 7.22 µg/mL)	16 (≈ 7.22 µg/mL)	2 (≈ 0.903 µg/mL)	128 (≈ 57.8 µg/mL)	128 (≈ 57.8 µg/mL)	128 (≈ 57.8 µg/mL)	128 (≈ 57.8 µg/mL)	128 (≈ 57.8 µg/mL)	32 (≈ 14.4 µg/mL)	32 (≈ 14.4 µg/mL)	16 (≈ 7.22 µg/mL)	64 (≈ 28.9 µg/mL)	4 (≈ 1.81 µg/mL)	32 (≈ 14.4 µg/mL)	16 (≈ 7.22 µg/mL)	1 (≈ 0.451 µg/mL)	MIC [13]: 0.13 µM (≈ 0.0587 µg/mL); MIC [18]: No growth; MIC [23]: 1 µM (≈ 0.451 µg/mL); MIC [24]: 128 µM (≈ 57.8 µg/mL)
Nc1ccc([C@@H](N)C(=O)N[C@@H]2C(=O)N3C(C(=O)O)=C(C(F)(F)F)CC[C@H]23)cc1	0.5 (≈ 0.199 µg/mL)	16 (≈ 6.37 µg/mL)	8 (≈ 3.19 µg/mL)	1 (≈ 0.398 µg/mL)	1 (≈ 0.398 µg/mL)	64 (≈ 25.5 µg/mL)	2 (≈ 0.797 µg/mL)	16 (≈ 6.37 µg/mL)	4 (≈ 1.59 µg/mL)	32 (≈ 12.7 µg/mL)	8 (≈ 3.19 µg/mL)	32 (≈ 12.7 µg/mL)	32 (≈ 12.7 µg/mL)	0.25 (≈ 0.0996 µg/mL)	64 (≈ 25.5 µg/mL)	16 (≈ 6.37 µg/mL)	16 (≈ 6.37 µg/mL)	64 (≈ 25.5 µg/mL)	16 (≈ 6.37 µg/mL)	0.5 (≈ 0.199 µg/mL)	MIC [25]: No growth; MIC [18]: No growth; MIC [23]: 1 µM (≈ 0.398 µg/mL); MIC [24]: 16 µM (≈ 6.37 µg/mL)
N[C@@H](C(=O)N[C@@H]1C(=O)N2C(C(=O)O)=C(C(F)(F)F)CC[C@H]12)c1ccc(Cl)c(Cl)c1	32 (≈ 14.5 µg/mL)	64 (≈ 28.9 µg/mL)	32 (≈ 14.5 µg/mL)	2 (≈ 0.904 µg/mL)	16 (≈ 7.24 µg/mL)	64 (≈ 28.9 µg/mL)	0.5 (≈ 0.226 µg/mL)	128 (≈ 57.9 µg/mL)	128 (≈ 57.9 µg/mL)	128 (≈ 57.9 µg/mL)	128 (≈ 57.9 µg/mL)	128 (≈ 57.9 µg/mL)	32 (≈ 14.5 µg/mL)	32 (≈ 14.5 µg/mL)	8 (≈ 3.62 µg/mL)	64 (≈ 28.9 µg/mL)	128 (≈ 57.9 µg/mL)	128 (≈ 57.9 µg/mL)	16 (≈ 7.24 µg/mL)	1 (≈ 0.452 µg/mL)	MIC [26]: 0.02 µM (≈ 0.00904 µg/mL); MIC [13]: 0.13 µM (≈ 0.0588 µg/mL); MIC [23]: 2 µM (≈ 0.904 µg/mL); MIC [24]: 128 µM (≈ 57.9 µg/mL)
CS(=O)(=O)Nc1cccc([C@@H](N)C(=O)N[C@@H]2C(=O)N3C(C(=O)O)=C(C(F)(F)F)CC[C@H]23)c1	0.5 (≈ 0.238 µg/mL)	16 (≈ 7.62 µg/mL)	8 (≈ 3.81 µg/mL)	2 (≈ 0.953 µg/mL)	1 (≈ 0.476 µg/mL)	16 (≈ 7.62 µg/mL)	2 (≈ 0.953 µg/mL)	16 (≈ 7.62 µg/mL)	4 (≈ 1.91 µg/mL)	32 (≈ 15.2 µg/mL)	2 (≈ 0.953 µg/mL)	32 (≈ 15.2 µg/mL)	8 (≈ 3.81 µg/mL)	2 (≈ 0.953 µg/mL)	16 (≈ 7.62 µg/mL)	16 (≈ 7.62 µg/mL)	16 (≈ 7.62 µg/mL)	64 (≈ 30.5 µg/mL)	16 (≈ 7.62 µg/mL)	0.5 (≈ 0.238 µg/mL)	MIC [26]: 0.06 µM (≈ 0.0286 µg/mL); MIC [13]: 0.13 µM (≈ 0.0619 µg/mL); MIC [23]: 2 µM (≈ 0.953 µg/mL); MIC [24]: 16 µM (≈ 7.62 µg/mL)
N[C@@H](C(=O)N[C@@H]1C(=O)N2C(C(=O)O)=C(C(F)(F)F)CC[C@H]12)c1ccccc1	0.5 (≈ 0.192 µg/mL)	8 (≈ 3.07 µg/mL)	32 (≈ 12.3 µg/mL)	1 (≈ 0.383 µg/mL)	1 (≈ 0.383 µg/mL)	32 (≈ 12.3 µg/mL)	0.5 (≈ 0.192 µg/mL)	8 (≈ 3.07 µg/mL)	2 (≈ 0.767 µg/mL)	16 (≈ 6.13 µg/mL)	4 (≈ 1.53 µg/mL)	8 (≈ 3.07 µg/mL)	4 (≈ 1.53 µg/mL)	0.25 (≈ 0.0958 µg/mL)	8 (≈ 3.07 µg/mL)	4 (≈ 1.53 µg/mL)	4 (≈ 1.53 µg/mL)	32 (≈ 12.3 µg/mL)	16 (≈ 6.13 µg/mL)	0.25 (≈ 0.0958 µg/mL)	MIC [26]: 0.03 µM (≈ 0.0115 µg/mL); MIC [13]: 0.25 µM (≈ 0.0958 µg/mL); MIC [23]: 1 µM (≈ 0.383 µg/mL); MIC [24]: 4 µM (≈ 1.53 µg/mL)
Cc1cccc([C@@H](N)C(=O)N[C@@H]2C(=O)N3C(C(=O)O)=C(C(F)(F)F)CC[C@H]23)c1	2 (≈ 0.795 µg/mL)	16 (≈ 6.36 µg/mL)	8 (≈ 3.18 µg/mL)	1 (≈ 0.397 µg/mL)	4 (≈ 1.59 µg/mL)	4 (≈ 1.59 µg/mL)	1 (≈ 0.397 µg/mL)	16 (≈ 6.36 µg/mL)	4 (≈ 1.59 µg/mL)	32 (≈ 12.7 µg/mL)	32 (≈ 12.7 µg/mL)	32 (≈ 12.7 µg/mL)	8 (≈ 3.18 µg/mL)	8 (≈ 3.18 µg/mL)	4 (≈ 1.59 µg/mL)	16 (≈ 6.36 µg/mL)	16 (≈ 6.36 µg/mL)	32 (≈ 12.7 µg/mL)	8 (≈ 3.18 µg/mL)	1 (≈ 0.397 µg/mL)	MIC [26]: 0.03 µM (≈ 0.0119 µg/mL); MIC [13]: 0.25 µM (≈ 0.0993 µg/mL); MIC [23]: 2 µM (≈ 0.795 µg/mL); MIC [24]: 16 µM (≈ 6.36 µg/mL)
